Assay results reported in patent US7109193B2, “Tricyclic diazepines tocolytic oxytocin receptor antagonists” (Wyeth, priority 2001, dated 2006).

Target: T1, human oxytocin receptor (Homo sapiens, UniProt P30559)
T1 construct: host or cells: CHO cells (pcDNA3.1 vector)
T1 sequence (P30559 1-389): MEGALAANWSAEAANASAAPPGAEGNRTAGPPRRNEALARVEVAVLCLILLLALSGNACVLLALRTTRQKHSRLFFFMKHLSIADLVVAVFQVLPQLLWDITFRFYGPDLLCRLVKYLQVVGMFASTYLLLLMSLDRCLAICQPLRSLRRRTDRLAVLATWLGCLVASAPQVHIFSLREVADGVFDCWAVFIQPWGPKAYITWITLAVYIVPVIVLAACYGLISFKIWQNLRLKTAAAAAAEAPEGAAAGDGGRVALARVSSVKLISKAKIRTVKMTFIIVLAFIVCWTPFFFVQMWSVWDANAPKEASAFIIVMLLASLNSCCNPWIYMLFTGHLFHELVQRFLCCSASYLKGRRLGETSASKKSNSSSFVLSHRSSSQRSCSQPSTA
Assay: Oxytocin binding in Chinese Hamster Ovary cell membranes expressing human oxytocin receptors
Conditions: 100 nM, CHO cell membranes, [3H]oxytocin, values without parentheses, read-out: OT % inhibition @ 100% nM

Row | inhibition at 0.1 µM | SMILES
1 | 16% | COc1cc(C(=O)N2Cc3ccc(C(=O)N4CCC(N5CCCCC5)CC4)n3Cc3ccccc32)ccc1-n1c(C)ccc1C [Example 311, {10-[4-(2,5-Dimethyl-1H-pyrrol-1-yl)-3-methoxy-benzoyl]-10,11-dihydro-5H-pyrrolo[2,1-c][1,4]benzodiazepin-3-yl}[4-(1-piperidinyl)-1-piperidinyl]-methanone]
2 | 77% | COc1cccc(-c2ccc(C(=O)N3Cc4ccc(C(=O)N5CCN(CCCN(C)C)CC5)n4Cc4ccccc43)cc2C)c1 [Example 248, {4-[3-(Dimethylamino)propyl]-1-piperazinyl}{10-[(3′-methoxy-2-methyl[1,1′-biphenyl]-4-yl)carbonyl]-10,11-dihydro-5H-pyrrolo[2,1-c][1,4]benzodiazepin-3-yl}methanone]
3 | 32% | C=CCN1CCN(C(=O)c2ccc3n2Cc2ccccc2N(C(=O)c2ccc(-n4c(C)ccc4C)c(OC)c2)C3)CC1 [Example 318, (4-Allyl-1-piperazinyl){10-[4-(2,5-dimethyl-1H-pyrrol-1-yl)-3-methoxybenzoyl]-10,11-dihydro-5H-pyrrolo[2,1-c][1,4]benzodiazepin-3-yl}methanone]
4 | 74% | COc1ccccc1-c1ccc(C(=O)N2Cc3ccc(C(=O)NCCCN(C)C)n3Cc3ccccc32)cc1C [Example 72, N-[3-(Dimethylamino)propyl]-10-[(2′-methoxy-2-methyl[1,1′-biphenyl]-4-yl)carbonyl]-10,11-dihydro-5H-pyrrolo[2,1-c][1,4]benzodiazepine-3-carboxamide]
5 | 45% | COc1cccc(-c2ccc(C(=O)N3Cc4ccc(C(=O)NCCCN(C)C)n4Cc4ccccc43)cc2C)c1 [Example 74, N-[3-(Dimethylamino)propyl]-10-[(3′-methoxy-2-methyl[1,1′-biphenyl]-4-yl)carbonyl]-10,11-dihydro-5H-pyrrolo[2,1-c][1,4]benzodiazepine-3-carboxamide]
6 | 79% | COc1cccc(-c2cc(OC)c(C(=O)N3Cc4ccc(C(=O)N5CCCN(C)CC5)n4Cc4ccccc43)cc2Cl)c1 [Example 67, {10-[(6-Chloro-3,3′-dimethoxy[1,1′-biphenyl]-4-yl)carbonyl]-10,11-dihydro-5H-pyrrolo[2,1-c][1,4]benzodiazepin-3-yl}(4-methyl-1,4-diazepan-1-yl)methanone]
7 | 87% | COc1cc(-c2ccccc2C)c(Cl)cc1C(=O)N1Cc2ccc(C(=O)N3CCN(CCCN(C)C)CC3)n2Cc2ccccc21 [Example 251, {10-[(6-Chloro-3-methoxy-2′-methyl[1,1′-biphenyl]-4-yl)carbonyl]-10,11-dihydro-5H-pyrrolo[2,1-c][1,4]benzodiazepin-3-yl}{4-[3-(dimethylamino)propyl]-1-piperazinyl}methanone]
8 | 75% | COc1cccc(-c2ccc(C(=O)N3Cc4ccc(C(=O)N5CCCN(C)CC5)n4Cc4ccccc43)cc2OC)c1 [Example 70, {10-[(2,3′-Dimethoxy[1,1′-biphenyl]-4-yl)carbonyl]-10,11-dihydro-5H-pyrrolo[2,1-c][1,4]benzodiazepin-3-yl}(4-methyl-1,4-diazepan-1-yl)methanone]
9 | 66% | COc1ccccc1-c1ccc(C(=O)N2Cc3ccc(C(=O)N[C@@H](CCCCNC(=O)OC(C)(C)C)C(N)=O)n3Cc3ccccc32)cc1OC [Example 303, tert-Butyl (5S)-6-amino-5-[({10-[(2,2′-dimethoxy[1,1′-biphenyl]-4-yl)carbonyl]-10,11-dihydro-5H-pyrrolo[2,1-c][1,4]benzodiazepin-3-yl}carbonyl)amino]-6-oxohexylcarbamate]
10 | 45% | COc1cccc(-c2ccc(C(=O)N3Cc4ccc(C(=O)n5ccnc5)n4Cc4ccccc43)cc2C)c1 [Example 289, 1H-Imidazol-1-yl-{10-[(3′-methoxy-2-methyl[1,1′-biphenyl]-4-yl)carbonyl]-10,11-dihydro-5H-pyrrolo[2,1-c][1,4]benzodiazepin-3-yl}methanone]
11 | 66% | COc1ccccc1-c1ccc(C(=O)N2Cc3ccc(C(=O)NCCCN(C)C)n3Cc3ccccc32)cc1 [Example 75, N-[3-(Dimethylamino)propyl]-10-[(2′-methoxy[1,1′-biphenyl]-4-yl)carbonyl]-10,11-dihydro-5H-pyrrolo[2,1-c][1,4]benzodiazepine-3-carboxamide]
12 | 7% | COc1cc(C(=O)N2Cc3ccc(C(=O)NCCCN(C)C)n3Cc3ccccc32)ccc1-n1c(C)ccc1C [Example 308, N-[3-(Dimethylamino)propyl]-10-[4-(2,5-dimethyl-1H-pyrrol-1-yl)-3-methoxybenzoyl]-10,11-dihydro-5H-pyrrolo[2,1-c][1,4]benzodiazepine-3-carboxamide]
13 | 71% | COc1ccccc1-c1ccc(C(=O)N2Cc3ccc(C(=O)N4CCCN(C)CC4)n3Cc3ccccc32)cc1OC [Example 69, {10-[(2,2′-Dimethoxy[1,1′-biphenyl]-4-yl)carbonyl]-10,11-dihydro-5H-pyrrolo[2,1-c][1,4]benzodiazepin-3-yl}(4-methyl-1,4-diazepan-1-yl)methanone]
14 | 81% | COc1cccc(-c2ccc(C(=O)N3Cc4ccc(C(=O)N5CCN(C)CC5)n4Cc4ccccc43)cc2C)c1 [Example 51, {10-[(3′-Methoxy-2-methyl[1,1′-biphenyl]-4-yl)carbonyl]-10,11-dihydro-5H-pyrrolo[2,1-c][1,4]benzodiazepin-3-yl}(4-methyl-1-piperazinyl)methanone]
15 | 74% | COc1cccc(-c2ccc(C(=O)N3Cc4ccc(C(=O)N5CCCN(C)CC5)n4Cc4ccccc43)cc2C)c1 [Example 64, {10-[(3′-Methoxy-2-methyl[1,1′-biphenyl]-4-yl)carbonyl]-10,11-dihydro-5H-pyrrolo[2,1-c][1,4]benzodiazepin-3-yl}(4-methyl-1,4-diazepan-1-yl)methanone]
16 | 86% | Cc1ccccc1-c1ccc(C(=O)N2Cc3ccc(C(=O)N4CCN(C)CC4)n3Cc3ccccc32)cc1 [Example 52, {10-[(2′-Methyl[1,1′-biphenyl]-4-yl)carbonyl]-10,11-dihydro-5H-pyrrolo[2,1-c][1,4]benzodiazepin-3-yl}(4-methyl-1-piperazinyl)methanone]
17 | 69% | Cc1cc(C(=O)N2Cc3cccn3Cc3ccccc32)ccc1-c1ccncc1 [Example 31, [3-Methyl-4-(4-pyridinyl)phenyl]-[10,11-dihydro-5H-pyrrolo[2,1-c][1,4]benzodiazepin-10-yl]methanone]
18 | 30% | COc1cc(C(=O)N2Cc3ccc(C(=O)N4CCCN(C)CC4)n3Cc3ccccc32)ccc1-n1c(C)ccc1C [Example 307, {10-[4-(2,5-Dimethyl-1H-pyrrol-1-yl)-3-methoxybenzoyl]-10,11-dihydro-5H-pyrrolo[2,1-c][1,4]benzodiazepin-3-yl}(4-methyl-1,4-diazepan-1-yl)methanone]
19 | 95% | COc1ccccc1-c1ccc(C(=O)N2Cc3ccc(C(=O)N[C@@H](Cc4c[nH]cn4)C(N)=O)n3Cc3ccccc32)cc1C [Example 288, N-[(1S)-2-Amino-1-(1H-imidazol-4-ylmethyl)-2-oxoethyl]-10-[(2′-methoxy-2-methyl[1,1′-biphenyl]4-yl)carbonyl]-10,11-dihydro-5H-pyrrolo[2,1-c][1,4]benzodiazepine-3-carboxamide]
20 | 25% | CN1CCCN(C(=O)c2ccc3n2Cc2ccccc2N(C(=O)c2ccc(-c4cccc5ccccc45)cc2Cl)C3)CC1 [Example 71, {10-[2-Chloro-4-(1-naphthyl)benzoyl]-10,11-dihydro-5H-pyrrolo[2,1-c][1,4]benzodiazepin-3-yl}(4-methyl-1,4-diazepan-1-yl)methanone]
21 | 86% | COc1ccccc1-c1ccc(C(=O)N2Cc3ccc(C(=O)N[C@@H](Cc4c[nH]cn4)C(N)=O)n3Cc3ccccc32)cc1OC [Example 286, N-[(1S)-2-Amino-1-(1H-imidazol-4-ylmethyl)-2-oxoethyl]-10-[(2,2′-dimethoxy[1,1′-biphenyl]-4-yl)carbonyl]-10,11-dihydro-5H-pyrrolo[2,1-c][1,4]benzodiazepine-3-carboxamide]
22 | 93% | COc1ccccc1-c1ccc(C(=O)N2Cc3ccc(C(=O)N[C@@H](Cc4c[nH]cn4)C(N)=O)n3Cc3ccccc32)cc1 [Example 285, N-[(1S)-2-Amino-1-(1H-imidazol-4-ylmethyl)-2-oxoethyl]-10-[(2′-methoxy[1,1′-biphenyl]-4-yl)carbonyl]-10,11-dihydro-5H-pyrrolo[2,1-c][1,4]benzodiazepine-3-carboxamide]
23 | 68% | COc1ccccc1-c1ccc(C(=O)N2Cc3ccc(C(=O)N4CCN(C)CC4)n3Cc3ccccc32)cc1OC [Example 56, {10-[(2,2′-Dimethoxy[1,1′-biphenyl]-4-yl)carbonyl]-10,11-dihydro-5H-pyrrolo[2,1-c][1,4]benzodiazepin-3-yl}(4-methyl-1-piperazinyl)methanone]
24 | 72% | COc1cc(C(=O)N2Cc3ccc(C(=O)N(C)CCN(C)C)n3Cc3ccccc32)ccc1-n1c(C)ccc1C [Example 309, N-[2-(Dimethylamino)ethyl]-10-[4-(2,5-dimethyl-1H-pyrrol-1-yl)-3-methoxybenzoyl]-N-methyl-10,11-dihydro-5H-pyrrolo[2,1-c][1,4]benzodiazepine-3-carboxamide]
25 | 97% | COc1cc(C(=O)N2Cc3cccn3Cc3ccccc32)ccc1-c1ccccc1C(F)(F)F [Example 19D, (10,11-Dihydro-5H-pyrrolo[2,1-c][1,4]benzodiazepin-10-yl)-(2-methoxy-2′-trifluoromethyl-[1,1′-biphenyl]-4-yl)-methanone]
